In article PMC3606911 (Journal of enzyme inhibition and medicinal chemistry, 2012):
pIC50: −log10 of the molar value. “Also recorded” adds a separate entry of the source. Where two headings read alike, the source gives them in different places.

Legend:
COX isoform = settings: cited from earlier work
FAAH [1] = settings: cited from earlier work
[2] = system: acetic acid-induced abdominal stretching; settings: rats, 20 mg/kg i.p., cited from earlier work
FAAH [3] = target: T1, FAAH (Rattus norvegicus, UniProt P97612); experiment: FAAH assay: hydrolysis of [3H]AEA by rat brain homogenates; assay type: biochemical
T1 sequence (P97612 1-579): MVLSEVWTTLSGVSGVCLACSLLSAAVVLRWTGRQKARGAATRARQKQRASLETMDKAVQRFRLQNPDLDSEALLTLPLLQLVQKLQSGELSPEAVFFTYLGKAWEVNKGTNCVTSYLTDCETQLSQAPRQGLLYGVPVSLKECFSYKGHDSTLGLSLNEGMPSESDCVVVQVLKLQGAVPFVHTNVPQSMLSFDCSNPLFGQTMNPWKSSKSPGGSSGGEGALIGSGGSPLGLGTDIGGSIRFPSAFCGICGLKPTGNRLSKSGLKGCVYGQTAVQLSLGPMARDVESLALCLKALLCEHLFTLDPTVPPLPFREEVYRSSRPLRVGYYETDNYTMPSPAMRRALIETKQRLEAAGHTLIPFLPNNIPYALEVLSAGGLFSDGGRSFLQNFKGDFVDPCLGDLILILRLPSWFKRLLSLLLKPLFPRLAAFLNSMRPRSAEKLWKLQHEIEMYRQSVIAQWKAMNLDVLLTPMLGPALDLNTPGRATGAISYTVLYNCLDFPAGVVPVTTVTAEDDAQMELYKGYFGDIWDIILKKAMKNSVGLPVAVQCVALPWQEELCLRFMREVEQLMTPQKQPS

[4] = system: acetic acid-induced abdominal stretching; settings: mice, 10 and 30 mg/kg s.c.; cited from earlier work
[5] = system: acetic acid-induced abdominal stretching (visceral nociception); experiment: Acetic acid-induced abdominal stretching test; assay type: in vivo; settings: mice, 30 mg/kg s.c., 30 min before acetic acid
ovine COX-1 = target: T2, ovine COX-1 (Ovis aries, UniProt P05979); experiment: COX oxygen electrode assay, COX-1; assay type: biochemical; settings: for Initial activity (% of vehicle control) COX-1 (AEA): substrate 10 μM
T2 sequence (P05979 25-600): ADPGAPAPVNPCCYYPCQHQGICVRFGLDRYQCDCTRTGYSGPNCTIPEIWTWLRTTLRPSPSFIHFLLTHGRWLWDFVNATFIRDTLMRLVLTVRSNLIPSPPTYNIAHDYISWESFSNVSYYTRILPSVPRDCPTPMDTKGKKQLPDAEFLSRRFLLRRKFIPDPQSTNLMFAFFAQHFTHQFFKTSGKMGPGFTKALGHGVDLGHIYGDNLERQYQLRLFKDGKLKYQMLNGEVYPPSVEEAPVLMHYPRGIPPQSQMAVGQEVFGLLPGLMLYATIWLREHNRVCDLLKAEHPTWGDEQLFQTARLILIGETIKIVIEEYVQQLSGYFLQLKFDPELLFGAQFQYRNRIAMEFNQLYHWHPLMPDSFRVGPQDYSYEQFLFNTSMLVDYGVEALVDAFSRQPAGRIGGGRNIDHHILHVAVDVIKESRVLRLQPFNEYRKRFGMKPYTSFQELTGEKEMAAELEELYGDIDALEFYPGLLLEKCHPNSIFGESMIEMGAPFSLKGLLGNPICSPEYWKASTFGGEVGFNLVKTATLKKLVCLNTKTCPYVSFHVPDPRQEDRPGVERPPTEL

human recombinant COX-2 = target: T3, human recombinant COX-2 (Homo sapiens, UniProt P35354); experiment: COX oxygen electrode assay, COX-2; assay type: biochemical; settings: for Initial activity (% of vehicle control) COX-2 (AEA) / Initial activity (% of vehicle control) COX-2 (AA): vehicle EtOH; for Initial activity (% of vehicle control) COX-2 (AEA): substrate AEA 10 μM; for Initial activity (% of vehicle control) COX-2 (AA): substrate AA 10 μM
T3 sequence (P35354 18-604): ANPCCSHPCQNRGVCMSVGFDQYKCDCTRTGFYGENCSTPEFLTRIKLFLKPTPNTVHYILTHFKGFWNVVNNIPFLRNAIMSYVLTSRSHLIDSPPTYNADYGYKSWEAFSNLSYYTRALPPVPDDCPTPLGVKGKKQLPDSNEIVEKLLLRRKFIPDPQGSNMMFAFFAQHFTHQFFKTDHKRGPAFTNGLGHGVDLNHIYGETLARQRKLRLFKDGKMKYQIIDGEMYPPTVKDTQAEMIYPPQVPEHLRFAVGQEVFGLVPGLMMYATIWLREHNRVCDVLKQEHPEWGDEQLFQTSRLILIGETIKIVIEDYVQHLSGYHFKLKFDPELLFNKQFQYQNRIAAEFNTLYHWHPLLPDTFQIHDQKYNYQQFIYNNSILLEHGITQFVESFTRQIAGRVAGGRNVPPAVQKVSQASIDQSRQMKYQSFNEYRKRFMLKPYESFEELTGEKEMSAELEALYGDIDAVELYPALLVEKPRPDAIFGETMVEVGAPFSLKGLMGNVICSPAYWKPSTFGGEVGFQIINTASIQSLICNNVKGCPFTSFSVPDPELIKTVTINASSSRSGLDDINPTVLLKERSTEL

[6] = cited from earlier work
[7] = read-out: inhibition of the cyclooxygenation of AA by COX-2

CC(=O)Nc1ccc(OC(=O)C(C)c2ccc(Nc3ccnc(C(F)(F)F)c3)cc2)cc1 (centres unmarked) [4-acetamidophenyl 2-(4-(2-(trifluoromethyl)pyridin-4-ylamino)phenyl)propanoate, reference compound]
inhibition of COX isoforms (COX isoform): did not inhibit either COX isoform
pIC50 (FAAH [1]; read-out: IC50 FAAH): 7.00

CC(C)Cc1ccc(C(C)C(=O)O)cc1 (centres unmarked) [Compound 1, Ibuprofen, reference compound]
activity in the acetic acid-induced abdominal stretching test [2]: significantly less effective than 20 mg/kg of 2

Cc1cccnc1NC(=O)C(C)c1ccc(CC(C)C)cc1 (centres unmarked) [Compound 2, N-(3-methylpyridin-2-yl)-2-(4′-isobutylphenyl)propionamide]
fold more potent than 1 as an FAAH inhibitor (FAAH [3]): approximately 250 fold
FAAH/COX-1 potency ratio, ratio for 1 set to unity (FAAH [3]; higher number = increased FAAH inhibitory potency relative to COX-1 potency): ~ 500
Max inhibition % (FAAH [3]; solvent DMSO): 100%
Max inhibition % (FAAH [3]; solvent EtOH): 100%
activity in the acetic acid-induced abdominal stretching test [4]: has analgesic activity; also recorded: greater than for a dose of 10 mg/kg s.c. and for 30 mg/kg of diclofenac
number of abdominal stretches elicited by acetic acid [5]: active in vivo; also recorded: decreased the number of abdominal stretches
COX isoform selectivity with AA as substrate (ovine COX-1; AA as substrate, COX-1 vs COX-2): COX-1 selective
pIC50 (ovine COX-1; IC50 COX-1 (approximate), AA 10 μM as substrate, DMSO as vehicle): ~3.62
pIC50 (ovine COX-1; IC50 COX-1 (approximate), AA 10 μM as substrate, ethanol as vehicle): ~4.22
Initial activity (% of vehicle control) COX-1 (AEA) (ovine COX-1; vehicle DMSO, compound 20 μM): 106±15 (3) % of vehicle control
Initial activity (% of vehicle control) COX-1 (AEA) (ovine COX-1; vehicle DMSO, compound 50 μM): 82±4 (6) % of vehicle control
Initial activity (% of vehicle control) COX-1 (AEA) (ovine COX-1; vehicle DMSO, compound 100 μM): 63±6 (6) % of vehicle control
Initial activity (% of vehicle control) COX-1 (AEA) (ovine COX-1; vehicle DMSO, compound 200 μM): 59±8 (6) % of vehicle control
Initial activity (% of vehicle control) COX-1 (AEA) (ovine COX-1; vehicle DMSO, compound 400 μM): 36±0.9 (3) % of vehicle control
Initial activity (% of vehicle control) COX-1 (AEA) (ovine COX-1; vehicle EtOH, compound 20 μM): 70±6 (3) % of vehicle control
Initial activity (% of vehicle control) COX-1 (AEA) (ovine COX-1; vehicle EtOH, compound 50 μM): 57±0.6 (3) % of vehicle control
Initial activity (% of vehicle control) COX-1 (AEA) (ovine COX-1; vehicle EtOH, compound 100 μM): 45±8 (3) % of vehicle control
Initial activity (% of vehicle control) COX-1 (AEA) (ovine COX-1; vehicle EtOH, compound 200 μM): 14±4 (3) % of vehicle control
activity in the acetic acid-induced abdominal stretching test ([2]; 20 mg/kg): has analgesic activity; also recorded: significantly greater reduction in stretching than the same dose of 1
pIC50 (human recombinant COX-2): ~4.72
inhibition at 300 µM (human recombinant COX-2; [7]): 41%
Initial activity (% of vehicle control) COX-2 (AEA) (human recombinant COX-2; compound 3 μM): 111±15 (6) % of vehicle control
Initial activity (% of vehicle control) COX-2 (AEA) (human recombinant COX-2; compound 10 μM): 77±10 (3) % of vehicle control
Initial activity (% of vehicle control) COX-2 (AEA) (human recombinant COX-2; compound 20 μM): 51±17 (3) % of vehicle control
Initial activity (% of vehicle control) COX-2 (AEA) (human recombinant COX-2; compound 50 μM): 0.7±9 (4) % of vehicle control
Initial activity (% of vehicle control) COX-2 (AA) (human recombinant COX-2; compound 100 μM): 88±8 (3) % of vehicle control
Initial activity (% of vehicle control) COX-2 (AA) (human recombinant COX-2; compound 300 μM): 59±4 (4) % of vehicle control
acute ulcerogenesis [6]: much lower than seen with 1
mode of inhibition of FAAH (FAAH [1]): acts non-competitively
orders of magnitude more potent as an inhibitor of FAAH than ibuprofen (FAAH [1]): 2–3 orders of magnitude

Cc1cccnc1OC(=O)C(C)c1ccc(CC(C)C)cc1 (centres unmarked) [Compound 3, 3-methylpyridin-2-yl 2-(4-isobutylphenyl)propanoate]
Max inhibition % (FAAH [3]; solvent EtOH): 100%

Cc1cccnc1NC(=O)CNC(=O)C(C)c1ccc(CC(C)C)cc1 (centres unmarked) [Compound 9, 2-(4-Isobutylphenyl)-N-(2-(3-methylpyridin-2-ylamino)-2-oxoethyl)propanamide]
pIC50 (ovine COX-1): ~4.30
Initial activity (% of vehicle control) COX-1 (AEA) (ovine COX-1; vehicle EtOH, compound 20 μM): 76±8 (3) % of vehicle control
Initial activity (% of vehicle control) COX-1 (AEA) (ovine COX-1; vehicle EtOH, compound 50 μM): 56±4 (3) % of vehicle control
Initial activity (% of vehicle control) COX-1 (AEA) (ovine COX-1; vehicle EtOH, compound 100 μM): 23±4 (3) % of vehicle control
pIC50 (human recombinant COX-2): ~5.00
inhibition at 100 µM (human recombinant COX-2; [7]): 18%
Initial activity (% of vehicle control) COX-2 (AEA) (human recombinant COX-2; compound 3 μM): 83±8 (3) % of vehicle control
Initial activity (% of vehicle control) COX-2 (AEA) (human recombinant COX-2; compound 50 μM): −11±4 (3) % of vehicle control
Initial activity (% of vehicle control) COX-2 (AA) (human recombinant COX-2; compound 100 μM): 82±5 (4) % of vehicle control

Cc1cccc(NC(=O)CNC(=O)C(C)c2ccc(CC(C)C)cc2)n1 (centres unmarked) [Compound 10, 2-(4-Isobutylphenyl)-N-(2-(6-methylpyridin-2-ylamino)-2-oxoethyl)propanamide]
Max inhibition % (FAAH [3]; solvent EtOH): 100%

Cc1cccnc1NC(=O)CCNC(=O)C(C)c1ccc(CC(C)C)cc1 (centres unmarked) [Compound 11, 2-(4-Isobutylphenyl)-N-(3-(3-methylpyridin-2-ylamino)-3-oxopropyl)propanamide]
Max inhibition % (FAAH [3]; solvent DMSO): 90±3%

CC(C)Cc1ccc(C(C)C(=O)NCC(=O)NCc2ccccn2)cc1 (centres unmarked) [Compound 12, 2-(4-Isobutylphenyl)-N-(2-oxo-2-(pyridin-2-ylmethylamino)ethyl)propanamide]
Max inhibition % (FAAH [3]; solvent DMSO): 100%

CC(C)Cc1ccc(C(C)C(=O)NCC(=O)NCc2cccnc2)cc1 (centres unmarked) [Compound 13, 2-(4-Isobutylphenyl)-N-(2-oxo-2-(pyridin-3-ylmethylamino)ethyl)propanamide]
Max inhibition % (FAAH [3]; solvent DMSO): 81±8%
